This experiment concerns the target T1, human wildtype CFTR (Homo sapiens, UniProt P13569).
T1 construct: expressed in transfected cells; host or cells: Fischer rat thyroid (FRT) cells
Briefly: Fluorescence platereader assay of CFTR-mediated iodide influx (YFP quenching) in FRT cells. It is filed as cell-based. The settings on record: for inhibition at 5 µM / inhibition at 25 µM: FRT; for IC50: apparent IC50 from concentration-inhibition data, fluorescence platereader assay. The essentials:
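Fischer rat thyroid cells co-expressing human wildtype CFTR and the YFP-H148Q/1152L halide sensor were seeded at 20,000 cells per well in 96-well black-walled plates and assayed 48 h later at confluence. After PBS washes and a 15 min incubation, CFTR was maximally activated with an agonist mixture. Fluorescence was recorded for 2 s before and 10 s after adding 160 μL iodide-substituted PBS, and iodide influx rates came from non-linear regression.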

The mark [1] stands for this setting: read-out: % inhibition at 25/5 μM (5 μM value), Table 1, 5 μM compound.
[2] abbreviates: read-out: % inhibition at 25/5 μM (25 μM value), Table 1, 25 μM compound.
The mark [3] stands for this setting: Table 2, screening, 5 μM, read-out: % Inhibition at 5 μM.
[4] abbreviates: Table 2, screening, 25 μM, read-out: % Inhibition at 25 μM.

Like-named read-outs stand apart in the source and are kept apart here.

T1 sequence (P13569 whole entry): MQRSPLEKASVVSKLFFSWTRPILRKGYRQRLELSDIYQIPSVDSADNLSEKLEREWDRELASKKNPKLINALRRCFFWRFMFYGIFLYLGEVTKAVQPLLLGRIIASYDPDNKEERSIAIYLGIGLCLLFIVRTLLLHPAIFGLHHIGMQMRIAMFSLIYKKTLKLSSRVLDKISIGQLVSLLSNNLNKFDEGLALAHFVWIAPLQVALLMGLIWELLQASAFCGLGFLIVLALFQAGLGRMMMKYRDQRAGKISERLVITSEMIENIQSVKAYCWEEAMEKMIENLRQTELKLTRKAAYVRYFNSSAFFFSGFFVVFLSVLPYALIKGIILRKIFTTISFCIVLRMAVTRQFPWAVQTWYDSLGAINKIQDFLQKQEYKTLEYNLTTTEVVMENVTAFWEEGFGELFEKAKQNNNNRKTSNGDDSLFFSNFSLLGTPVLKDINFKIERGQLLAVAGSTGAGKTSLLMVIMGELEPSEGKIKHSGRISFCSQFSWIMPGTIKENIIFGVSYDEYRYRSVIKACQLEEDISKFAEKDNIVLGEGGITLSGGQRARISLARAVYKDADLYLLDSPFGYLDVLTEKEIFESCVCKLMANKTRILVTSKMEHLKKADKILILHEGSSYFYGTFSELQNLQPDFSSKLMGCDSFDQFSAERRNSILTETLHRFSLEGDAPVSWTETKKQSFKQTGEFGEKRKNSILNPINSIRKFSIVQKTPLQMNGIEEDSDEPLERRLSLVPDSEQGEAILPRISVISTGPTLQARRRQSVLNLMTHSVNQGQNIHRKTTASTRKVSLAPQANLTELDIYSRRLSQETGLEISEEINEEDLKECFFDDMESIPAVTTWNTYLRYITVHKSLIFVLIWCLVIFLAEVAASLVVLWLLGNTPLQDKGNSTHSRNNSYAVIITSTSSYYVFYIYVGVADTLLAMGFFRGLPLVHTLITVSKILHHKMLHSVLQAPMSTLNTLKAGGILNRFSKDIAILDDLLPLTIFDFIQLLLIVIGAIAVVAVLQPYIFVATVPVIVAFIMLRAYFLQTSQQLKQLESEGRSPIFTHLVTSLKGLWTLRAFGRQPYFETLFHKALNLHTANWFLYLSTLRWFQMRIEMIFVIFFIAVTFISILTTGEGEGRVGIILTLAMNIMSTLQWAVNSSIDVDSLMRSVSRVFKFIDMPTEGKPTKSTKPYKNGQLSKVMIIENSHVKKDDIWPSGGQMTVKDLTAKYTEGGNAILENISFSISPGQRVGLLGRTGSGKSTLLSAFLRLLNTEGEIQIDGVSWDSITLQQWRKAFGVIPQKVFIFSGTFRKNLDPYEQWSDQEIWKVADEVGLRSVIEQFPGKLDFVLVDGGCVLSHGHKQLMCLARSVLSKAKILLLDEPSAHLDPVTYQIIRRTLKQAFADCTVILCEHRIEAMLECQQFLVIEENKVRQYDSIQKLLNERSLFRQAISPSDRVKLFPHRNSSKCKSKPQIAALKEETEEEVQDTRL

In general, IC50 refers to the midpoint of a concentration-inhibition curve. Regarding `Cc1ccc(C2Nc3cc(C)c(C)cc3-n3c(-c4ccccc4)c4c(=O)n(C)c(=O)n(C)c4c32)o1` (centres unmarked) [PPQ-104, 2,3,7,9-Tetramethyl-11-phenyl-6-(5-methylfuran-2-yl)-5,6-dihydro-pyrimido[4′,5′-3,4]pyrrolo[1,2-a]quinoxaline-8,10-(7H,9H)-dione], the IC50 was found to be 0.8 µM. Besides, the inhibition at 5 µM under setting [1] is 84%. Also, the inhibition at 25 µM under setting [2] was determined as 90%. Further, under setting [3], the inhibition at 5 µM was determined as 84%. For the same molecule, the inhibition at 25 µM under setting [4] was found to be 90%.
`Cc1cccc(-c2c3c(=O)n(C)c(=O)n(C)c3c3n2-c2ccccc2NC3c2cccs2)c1` (centres unmarked) [PPQ-114, 7,9-Dimethyl-11-(3-methylphenyl)-6-(thienyl-2-yl)-5,6-dihydro-pyrimido[4′,5′-3,4]pyrrolo[1,2-a]quinoxaline-8,10-(7H,9H)-dione]: the inhibition at 5 µM under setting [3] came out at 29%. Moreover, the inhibition at 25 µM under setting [4] worked out at 79%.
Take `COc1ccc(-c2c3c(=O)n(C)c(=O)n(C)c3c3n2-c2ccccc2NC3c2cccc(O)c2)cc1` (centres unmarked): under setting [3], the inhibition at 5 µM is below 10%. For the same molecule, under setting [4], the inhibition at 25 µM was 33%.
`Cc1cc2c(cc1C)-n1c(-c3ccccc3)c3c(=O)n(C)c(=O)n(C)c3c1C(c1ccc(O)cc1)N2` (centres unmarked) [PPQ-203, 2,3,7,9-Tetramethyl-11-phenyl-6-(4-hydroxyphenyl)-5,6-dihydro-pyrimido[4′,5′-3,4]pyrrolo[1,2-a]quinoxaline-8,10-(7H,9H)-dione]: the IC50 is 1.5 µM. Besides, under setting [1], the inhibition at 5 µM amounted to 80%. The inhibition at 5 µM under setting [3] was found to be 80%. Moreover, the inhibition at 25 µM under setting [4] is above 95%.
On to `Cc1cc2c(cc1C)-n1c(-c3ccccc3)c3c(=O)n(C)c(=O)n(C)c3c1C(c1cc(O)ccc1O)N2` (centres unmarked) [PPQ-247, 2,3,7,9-Tetramethyl-11-phenyl-6-(2,5-dihydroxyphenyl)-5,6-dihydro-pyrimido[4′,5′-3,4]pyrrolo[1,2-a]quinoxaline-8,10-(7H,9H)-dione], for which, under setting [3], the inhibition at 5 µM is 13%. Moreover, the inhibition at 25 µM under setting [4] came to 58%.
In the same order, the values of `COc1cc(C2Nc3ccccc3-n3c(-c4ccccc4)c4c(=O)n(C)c(=O)n(C)c4c32)ccc1O` (centres unmarked) [PPQ-248, 7,9-Dimethyl-11-phenyl-6-(3-methoxy-4-hydroxyphenyl)-5,6-dihydro-pyrimido[4′,5′-3,4]pyrrolo[1,2-a]quinoxaline-8,10-(7H,9H)-dione] are 5% and 64%.
The matching figures for `Cc1cccc(-c2c3c(=O)n(C)c(=O)n(C)c3c3n2-c2ccccc2NC3c2ccc3c(c2)OCO3)c1` (centres unmarked) [PPQ-302, 7,9-Dimethyl-11-(3-methylphenyl)-6-(1,3-benzodioxol-5-yl)-5,6-dihydro-pyrimido[4′,5′-3,4]pyrrolo[1,2-a]quinoxaline-8,10-(7H,9H)-dione]: 26% and 63%.
In the case of `Cc1cccc(C2Nc3ccccc3-n3c(-c4ccccc4)c4c(=O)n(C)c(=O)n(C)c4c32)c1` (centres unmarked) [PPQ-232, 7,9-Dimethyl-11-phenyl-6-(3-methylphenyl)-5,6-dihydro-pyrimido[4′,5′-3,4]pyrrolo[1,2-a]quinoxaline-8,10-(7H,9H)-dione], the inhibition at 5 µM under setting [3] came to 67%. Under setting [4], the inhibition at 25 µM came to 67%.
On to `COc1cccc(C2Nc3ccccc3-n3c(-c4ccc(Cl)cc4)c4c(=O)n(C)c(=O)n(C)c4c32)c1` (centres unmarked), for which the inhibition at 5 µM under setting [3] was below 10%. Under setting [4], the inhibition at 25 µM amounted to 41%.
Regarding `Cc1cc2c(cc1C)-n1c(-c3ccccc3)c3c(=O)n(C)c(=O)n(C)c3c1C(c1cccs1)N2` (centres unmarked) [PPQ-115, 2,3,7,9-Tetramethyl-11-phenyl-6-(thienyl-2-yl)-5,6-dihydro-pyrimido[4′,5′-3,4]pyrrolo[1,2-a]quinoxaline-8,10-(7H,9H)-dione], the inhibition at 5 µM under setting [3] amounted to 14%. Under setting [4], the inhibition at 25 µM worked out at 61%.
With `Cn1c(=O)c2c(-c3ccc(Cl)cc3)n3c(c2n(C)c1=O)C(c1ccccc1)Nc1ccccc1-3` (centres unmarked), the inhibition at 5 µM under setting [3] is below 10%. For the same molecule, under setting [4], the inhibition at 25 µM is 34%.
Turning to `Cc1ccc(C2Nc3ccccc3-n3c(-c4ccccc4C)c4c(=O)n(C)c(=O)n(C)c4c32)cc1` (centres unmarked), the inhibition at 5 µM under setting [3] was found to be 13%. In addition, the inhibition at 25 µM under setting [4] turned out to be 38%.
As for `Cc1cccc(-c2c3c(=O)n(C)c(=O)n(C)c3c3n2-c2ccccc2NC3c2cccc([N+](=O)[O-])c2)c1` (centres unmarked) [PPQ-225, 7,9-Dimethyl-11-(3-methylphenyl)-6-(3-nitrophenyl)-5,6-dihydro-pyrimido[4′,5′-3,4]pyrrolo[1,2-a]quinoxaline-8,10-(7H,9H)-dione], the inhibition at 5 µM under setting [3] turned out to be 61%. The inhibition at 25 µM under setting [4] came to 94%.
Consider `Cc1cccc(C2Nc3ccccc3-n3c(-c4ccccc4C)c4c(=O)n(C)c(=O)n(C)c4c32)c1` (centres unmarked) [PPQ-217, 7,9-Dimethyl-11-(2-methylphenyl)-6-(3-methylphenyl)-5,6-dihydro-pyrimido[4′,5′-3,4]pyrrolo[1,2-a]quinoxaline-8,10-(7H,9H)-dione], for which the IC50 was 3 µM. Further, the inhibition at 5 µM under setting [1] was determined as 46%. Besides, under setting [3], the inhibition at 5 µM worked out at 46%. Under setting [4], the inhibition at 25 µM is above 95%.
In the case of `COc1ccc(-c2c3c(=O)n(C)c(=O)n(C)c3c3n2-c2ccccc2NC3c2cccs2)cc1` (centres unmarked), under setting [3], the inhibition at 5 µM is below 10%. The inhibition at 25 µM under setting [4] is 34%.
For the molecule `Cc1cc2c(cc1C)-n1c(-c3ccccc3)c3c(=O)n(C)c(=O)n(C)c3c1C(c1cccc(O)c1)N2` (centres unmarked) [PPQ-223, 2,3,7,9-Tetramethyl-11-phenyl-6-(3-hydroxyphenyl)-5,6-dihydro-pyrimido[4′,5′-3,4]pyrrolo[1,2-a]quinoxaline-8,10-(7H,9H)-dione], under setting [3], the inhibition at 5 µM is 36%. For the same molecule, the inhibition at 25 µM under setting [4] was 92%.
For `Cc1ccc(C(=O)Nc2ccccc2-n2cc3c(c2-c2ccccc2)c(=O)n(C)c(=O)n3C)o1` [PPQ-102b, N-(2-(1,3-dimethyl-2,4-dioxo-5-phenyl-3,4-dihydro-1H-pyrrolo[3,4-d]pyrimidin-6(2H)-yl)phenyl)-5-methylfuran-2-carboxamide], the “CFTR inhibition activity” value (structure-activity analysis) is recorded as “abolished CFTR inhibition activity”.
Take `Cc1cccc(-c2c3c(=O)n(C)c(=O)n(C)c3c3n2-c2ccccc2NC3c2ccc(C)o2)c1` (centres unmarked) [PPQ-101, 7,9-Dimethyl-11-(3-methylphenyl)-6-(5-methylfuran-2-yl)-5,6-dihydro-pyrimido[4′,5′-3,4]pyrrolo[1,2-a]quinoxaline-8,10-(7H,9H)-dione]: the IC50 is 0.7 µM. In addition, the inhibition at 5 µM under setting [3] is above 95%. The inhibition at 25 µM under setting [4] is above 95%.
Turning to `Cc1ccccc1-c1c2c(=O)n(C)c(=O)n(C)c2c2n1-c1ccccc1NC2c1cccc([N+](=O)[O-])c1` (centres unmarked) [PPQ-213, 7,9-Dimethyl-11-(2-methylphenyl)-6-(3-nitrophenyl)-5,6-dihydro-pyrimido[4′,5′-3,4]pyrrolo[1,2-a]quinoxaline-8,10-(7H,9H)-dione], the half-maximal inhibitory concentration (IC50) is 2 µM. The inhibition at 5 µM under setting [1] worked out at 64%. Further, under setting [2], the inhibition at 25 µM amounted to 96%. Besides, the inhibition at 5 µM under setting [3] came out at 64%. Also, under setting [4], the inhibition at 25 µM was 96%.
With `Cc1ccccc1-c1c2c(=O)n(C)c(=O)n(C)c2c2n1-c1ccccc1NC2c1ccccc1F` (centres unmarked) [PPQ-234, 7,9-Dimethyl-11-(2-methylphenyl)-6-(2-fluorophenyl)-5,6-dihydro-pyrimido[4′,5′-3,4]pyrrolo[1,2-a]quinoxaline-8,10-(7H,9H)-dione], the inhibition at 5 µM under setting [3] was determined as 53%. In addition, the inhibition at 25 µM under setting [4] worked out at 81%.
In the same order, the values of `Cn1c(=O)c2c(-c3ccccc3)n3c(c2n(C)c1=O)C(c1cccs1)Nc1ccccc1-3` (centres unmarked) [PPQ-113, 7,9-Dimethyl-11-phenyl-6-(thienyl-2-yl)-5,6-dihydro-pyrimido[4′,5′-3,4]pyrrolo[1,2-a]quinoxaline-8,10-(7H,9H)-dione] are 34% and 77%.
The matching figures for `Cc1ccccc1-c1c2c(=O)n(C)c(=O)n(C)c2c2n1-c1ccccc1NC2c1ccc(O)c(O)c1` (centres unmarked): below 10% and 38%.
On to `Cc1cccc(-c2c3c(=O)n(C)c(=O)n(C)c3c3n2-c2ccccc2NC3c2ccc(O)cc2)c1` (centres unmarked) [PPQ-209, 7,9-Dimethyl-11-(3-methylphenyl)-6-(4-hydroxyphenyl)-5,6-dihydro-pyrimido[4′,5′-3,4]pyrrolo[1,2-a]quinoxaline-8,10-(7H,9H)-dione], for which the IC50 worked out at 1.7 µM. In addition, under setting [1], the inhibition at 5 µM amounted to 71%. The inhibition at 25 µM under setting [2] stood at 94%. The inhibition at 5 µM under setting [3] is 71%. The inhibition at 25 µM under setting [4] came to 94%.
Consider `Cc1ccc(C2Nc3ccccc3-n3c(-c4ccccc4C)c4c(=O)n(C)c(=O)n(C)c4c32)o1` (centres unmarked) [PPQ-103, 7,9-Dimethyl-11-(2-methylphenyl)-6-(5-methylfuran-2-yl)-5,6-dihydro-pyrimido[4′,5′-3,4]pyrrolo[1,2-a]quinoxaline-8,10-(7H,9H)-dione], for which the concentration for half-maximal inhibition (IC50) is 0.8 µM. Besides, under setting [3], the inhibition at 5 µM was 63%. Further, under setting [4], the inhibition at 25 µM is above 95%.
For `Cc1ccccc1-c1c2c(=O)n(C)c(=O)n(C)c2c2n1-c1ccccc1NC2c1cccc(F)c1` (centres unmarked) [PPQ-229, 7,9-Dimethyl-11-(2-methylphenyl)-6-(3-fluorophenyl)-5,6-dihydro-pyrimido[4′,5′-3,4]pyrrolo[1,2-a]quinoxaline-8,10-(7H,9H)-dione], the inhibition at 5 µM under setting [3] turned out to be 57%. The inhibition at 25 µM under setting [4] was 90%.
In the same order, the values of `Cc1ccc(-c2c3c(=O)n(C)c(=O)n(C)c3c3n2-c2ccccc2NC3c2cccc(F)c2F)cc1` (centres unmarked) are 27% and 31%.
For the molecule `COc1ccc(O)c(C2Nc3ccccc3-n3c(-c4ccccc4C)c4c(=O)n(C)c(=O)n(C)c4c32)c1` (centres unmarked), the inhibition at 5 µM under setting [3] is below 10%. Besides, the inhibition at 25 µM under setting [4] came to 38%.

Values taken from patent publication US8609661B2, “Pyrimido-pyrrolo-quinoxalinedione inhibitors of cystic fibrosis transmembrane conductance regulator protein and uses therefor” (The Regents of the University of California, priority 2009, dated 2013).
